Measurements: patent US20120252792A1, “METHODS AND COMPOSITIONS FOR MODULATING RHO-MEDIATED GENE TRANSCRIPTION” (THE REGENTS OF THE UNIVERSITY OF MICHIGAN, priority 2009, published 2012)
pIC50: −log10 of the molar value.

Experiments:
Format in all cases: cell-based, human
[1] = test system: Rho/MKL1 pathway; assay: SRE.L-firefly luciferase reporter (dual luciferase assay), Gα12QL-transfected PC-3 cells; settings: for inhibition at 10 µM: read-out: % inh SRE.L (10 μM); for inhibition at 100 µM: read-out: % inh SRE.L (100 μM)
Procedure: (§1) Dual Luciferase Assay: Seed PC-3 prostate cancer cells (40,000 cells/well) were grown in 96-well plates in 10% FBS containing DMEM medium. Cells were transiently transfected with the Gα12QL activator of the Rho/MKL1 pathway, along with the SRE.L-firefly luciferase reporter construct for 6 hours. Additionally, cells were co-transfected with the TK-Renilla luciferase reporter as an indicator of non-specific compound effects. Various concentrations of selected compounds were added to the 96-well plates. Plates were incubated for 19 hours at 37° C. and 5% CO2 in 0.5% FBS containing DMEM medium. Cells were lysed with 1X Passive Lysis Buffer (Promega). Plates were incubated for 30 minutes at room temperature. Luminescence counts were read with a Victor2 (Perkin-Elmer) plate reader.

[2] = test system: TK-Renilla luciferase reporter; assay: TK-Renilla (pRL-TK) luciferase reporter, indicator of non-specific compound effects; settings: PC-3 cells; for inhibition at 10 µM / inhibition at 100 µM: Homo sapiens, PC-3, 19 h; for inhibition at 10 µM: read-out: % inh PRL-TK (10 μM); for inhibition at 100 µM: read-out: % inh PRL-TK (100 μM)
Procedure: as §1

[3] = test system: PC-3 prostate cancer cells; assay: WST1 cell viability assay; settings: PC-3 cells, just before lysis; for inhibition at 10 µM / inhibition at 100 µM: Homo sapiens; for inhibition at 10 µM: PC-3, 10 μM, read-out: % inh WST-1 (10 μM); for inhibition at 100 µM: PC-3, 100 μM, read-out: % inh WST-1 (100 μM)
Procedure: WST1 Cell Viability Assay: One hour prior to cell lysis for the dual luciferase assay, 10 μl per well of WST1 reagent (Roche) was added to the 96-well plates. Plates were incubated for 1 hour at 37° C. and 5% CO2. Cell viability was measured by WST1 absorbance at 450 nm with a Victor2 (Perkin-Elmer) plate reader.

[4] = Homo sapiens, 19 h, 10 μM, DMSO alone = 0%
[5] = Homo sapiens, 19 h, 100 μM, DMSO alone = 0%

pIC50 ([1]; Homo sapiens, 19 h) | pIC50 ([1]; 19 hrs) | SMILES | inhibition at 10 µM [1, 4] [%] | inhibition at 100 µM [1, 5] [%] | inhibition at 10 µM [2] [%] | inhibition at 100 µM ([2]; 100 μM) [%] | inhibition at 10 µM [3] [%] | inhibition at 100 µM [3] [%] | % inh SRE.L (10 μM) ([1]; 10 μM, 19 hrs, DMSO alone = 0%) [%] | % inh SRE.L (100 μM) ([1]; 100 μM, 19 hrs, DMSO alone = 0%) [%] | % inh PRL-TK (100 μM) ([2]; 100 μM, 19 hrs) [%] | % inh WST-1 (100 μM) ([3]; 100 μM, 100 µM) [%]
5.33 | – | O=C(CONC(=O)c1cc(C(F)(F)F)cc(C(F)(F)F)c1)Nc1ccc(Cl)cc1 [Compound 1, N-(2-(4-chlorophenylamino)-2-oxoethoxy)-3,5-bis(trifluoromethyl)benzamide] | 71 | 100 | 53 | 89 | 42 | 91 | – | – | – | –
4.68 | – | O=C(CCCNC(=O)c1cc(C(F)(F)F)cc(C(F)(F)F)c1)Nc1ccc(Cl)cc1 [Compound 2, N-(4-(4-chlorophenylamino)-4-oxobutyl)-3,5-bis(trifluoromethyl)benzamide] | 37 | 79 | 5 | 42 | 0 | 12 | – | – | – | –
4.48 | – | O=C(CNC(=O)c1cc(C(F)(F)F)cc(C(F)(F)F)c1)Nc1ccc(Cl)cc1 [Compound 3, N-(2-(4-chlorophenylamino)-2-oxoethyl)-3,5-bis(trifluoromethyl)benzamide] | 45 | 85 | 15 | 25 | 0 | 30 | – | – | – | –
4.16 | – | O=C(Nc1ccc(Cl)cc1)C1CCCN1C(=O)c1cc(C(F)(F)F)cc(C(F)(F)F)c1 (centres unmarked) [Compound 7, 1-(3,5-bis(trifluoromethyl)benzoyl)-N-(4-chlorophenyl)pyrrolidine-2-carboxamide] | 23 | 83 | 12 | 27 | 0 | 22 | – | – | – | –
5.29 | – | O=C(NCCCNc1ccc(Cl)cc1)c1cc(C(F)(F)F)cc(C(F)(F)F)c1 [Compound 15, N-(3-(4-chlorophenylamino)propyl)-3,5-bis(trifluoromethyl)benzamide] | 70 | 80 | 37 | 35 | 0 | 11 | – | – | – | –
5.09 | – | O=C(CCNCc1cc(C(F)(F)F)cc(C(F)(F)F)c1)Nc1ccc(Cl)cc1 [Compound 22, 3-(3,5-bis(trifluoromethyl)benzylamino)-N-(4-chlorophenyl)propanamide] | 64 | 100 | 12 | 91 | 0 | 92 | – | – | – | –
5.34 | – | O=C(CC1CC(c2cc(C(F)(F)F)cc(C(F)(F)F)c2)=NO1)Nc1ccc(Cl)cc1 (centres unmarked) [Compound 23, 2-(3-(3,5-bis(trifluoromethyl)phenyl)-4,5-dihydroisoxazol-5-yl)-N-(4-chlorophenyl)acetamide] | 77 | 87 | 58 | 73 | 0 | 66 | – | – | – | –
5.00 | – | O=C(CC1CCCCN1C(=O)c1cc(C(F)(F)F)cc(C(F)(F)F)c1)Nc1ccc(Cl)cc1 (centres unmarked) [Compound 26, 2-(1-(3,5-bis(trifluoromethyl)benzoyl)piperidin-2-yl)-N-(4-chlorophenyl)acetamide] | 41 | 85 | 0 | 76 | 0 | 27 | – | – | – | –
4.60 | 4.42 | O=C(CCNC(=O)c1cc(C(F)(F)F)cc(C(F)(F)F)c1)Nc1ccc(Cl)cc1 [Compound 30, N-(3-(4-chlorophenylamino)-3-oxopropyl)-3,5-bis(trifluoromethyl)benzamide] | 44 | 66 | 0 | 15 | 0 | 6 | 38 | 64 | 22 | 10
< 4.00 | – | O=C(CCc1cnnn1-c1cc(C(F)(F)F)cc(C(F)(F)F)c1)Nc1ccc(Cl)cc1 [Compound 59] | -3 | 4.7 | -31.8 | -13.3 | -9.5 | -11.8 | – | – | – | –

The remaining lines, values behind:

SMILES | pIC50 ([1]; Homo sapiens, 19 h) | pIC50 ([1]; 19 hrs) | inhibition at 10 µM [1, 4] [%] | inhibition at 100 µM [1, 5] [%] | inhibition at 10 µM [2] [%] | inhibition at 100 µM ([2]; 100 μM) [%] | inhibition at 10 µM [3] [%] | inhibition at 100 µM [3] [%] | % inh SRE.L (10 μM) ([1]; 10 μM, 19 hrs, DMSO alone = 0%) [%] | % inh SRE.L (100 μM) ([1]; 100 μM, 19 hrs, DMSO alone = 0%) [%] | % inh PRL-TK (100 μM) ([2]; 100 μM, 19 hrs) [%] | % inh WST-1 (100 μM) ([3]; 100 μM, 100 µM) [%]
O=C(Nc1ccc(Cl)cc1)C1CCN(C(=O)c2cc(C(F)(F)F)cc(C(F)(F)F)c2)CC1 [Compound 5, 1-(3,5-bis(trifluoromethyl)benzoyl)-N-(4-chlorophenyl)piperidine-4-carboxamide] | 4.80 | – | 17 | 87 | 0 | 17 | 0 | 39 | – | – | – | –
O=C(CONC(=O)c1ccc(Cl)cc1)Nc1cc(C(F)(F)F)cc(C(F)(F)F)c1 [Compound 6, N-(2-(3,5-bis(trifluoromethyl)phenylamino)-2-oxoethoxy)-4-chlorobenzamide] | 5.07 | – | 58 | 100 | 19 | 87 | 11 | 96 | – | – | – | –
O=C(CONC(=O)c1cc(C(F)(F)F)cc(C(F)(F)F)c1)Nc1cccc(Cl)c1 [Compound 10, N-(2-(3-chlorophenylamino)-2-oxoethoxy)-3,5-bis(trifluoromethyl)benzamide] | 5.23 | – | 65 | 100 | 51 | 89 | 49 | 97 | – | – | – | –
O=C(Nc1ccc(Cl)cc1)c1cccc(NC(=O)c2cc(C(F)(F)F)cc(C(F)(F)F)c2)c1 [Compound 14, N-(3-(4-chlorophenylcarbamoyl)phenyl)-3,5-bis(trifluoromethyl)benzamide] | 5.77 | – | 79 | – | 0 | – | 38 | – | – | – | – | –
O=C(Nc1ccccc1C(=O)Nc1ccc(Cl)cc1)c1cc(C(F)(F)F)cc(C(F)(F)F)c1 [Compound 16, N-(2-(4-chlorophenylcarbamoyl)phenyl)-3,5-bis(trifluoromethyl)benzamide] | 4.74 | – | 34 | – | 0 | – | 0 | – | – | – | – | –
O=C(NCc1csc(-c2ccc(Cl)cc2)n1)c1cc(C(F)(F)F)cc(C(F)(F)F)c1 [Compound 18, N-((2-(4-chlorophenyl)thiazol-4-yl)methyl)-3,5-bis(trifluoromethyl)benzamide] | 5.39 | – | 50 | 45 | 39 | 38 | 0 | 0 | – | – | – | –
O=C(NCCCOc1ccc(Cl)cc1)c1cc(C(F)(F)F)cc(C(F)(F)F)c1 [Compound 19, N-(3-(4-chlorophenoxy)propyl)-3,5-bis(trifluoromethyl)benzamide] | 5.05 | – | 55 | 86 | 28 | 65 | 0 | 38 | – | – | – | –
O=C(Nc1ccc(Cl)cc1)C1CCN(C(=O)c2cc(C(F)(F)F)cc(C(F)(F)F)c2)C1 (centres unmarked) [Compound 27, 1-(3,5-bis(trifluoromethyl)benzoyl)-N-(4-chlorophenyl)pyrrolidine-3-carboxamide] | 4.81 | – | 30 | 100 | 14 | 92 | 0 | 86 | – | – | – | –
FC(F)(F)c1cc(CNCCCNc2ccc(Cl)cc2)cc(C(F)(F)F)c1 [Compound 28, N^1-(3,5-bis(trifluoromethyl)benzyl)-N^3-(4-chlorophenyl)propane-1,3-diamine] | 5.04 | – | 65 | 100 | 6 | 90 | 0 | 89 | – | – | – | –
O=C(NCCC(=O)N1CCc2cc(Cl)ccc21)c1cc(C(F)(F)F)cc(C(F)(F)F)c1 [Compound 29, N-(3-(5-chloroindolin-1-yl)-3-oxopropyl)-3,5-bis(trifluoromethyl)benzamide] | 4.89 | – | 15 | 40 | 0 | 1 | 0 | 0 | – | – | – | –
O=C(Nc1ccc(Cl)cc1)c1ccc(NC(=O)c2cc(C(F)(F)F)cc(C(F)(F)F)c2)cc1 [Compound 38] | < 4.00 | – | 0 | – | 0 | – | 0 | – | – | – | – | –
